Data reported in patent US20260125371A1, “METHOD FOR INHIBITING CLOSTRIDIOIDES DIFFICILE SPORE GERMINATION” (UNIVERSITY OF NOTRE DAME DU LAC, priority 2022, published 2026).
In brackets after ≈: the same amount, converted by molar mass. Where two headings read alike, the source gives them in different places.

How the values were obtained:
[1] = system: S. aureus; assay: MIC against S. aureus strains; type: cell-based; settings: S. aureus ATCC 29213, 24 h; for MIC: Staphylococcus aureus, ATCC29213, 24 h, read-out: MIC (μg/mL) 24 h
[2] = system: C. difficile ATCC 43255; assay: Determination of minimal-inhibitory concentrations (microdilution), C. difficile ATCC 43255; type: cell-based, Clostridioides difficile; settings: for MIC: Clostridioides difficile; for ATCC43255 MIC: C. difficile ATCC43255
[3] = system: THP-1 cells; assay: Lactate dehydrogenase (LDH) cytotoxicity assay; type: cell-based, human; settings: Homo sapiens, read-out: LDH (IC50)
[4] = system: C. difficile strain ATCC43255 spores; assay: Spore germination inhibition assay; type: cell-based, Clostridioides difficile; settings: compound 45 μM, germinant 6 mM taurocholate and 12 mM glycine, OD600 over 60 min, duplicate; for inhibition at 45 µM: Clostridioides difficile, 1 h
[5] = C. difficile ATCC 43255, 48-h incubation
[6] = ATCC43255, 24 h, C. difficile ATCC 43255, 24 h, read-out: MIC (μg/mL) 24 h
[7] = ATCC43255, 48 h, C. difficile ATCC 43255, 48-h incubation, read-out: MIC (μg/mL) 48 h
[8] = ATCC43255, Table 1, strain ATCC 43255, read-out: MIC C. difficile
[9] = ATCC43255, C. difficile ATCC43255, read-out: ATCC43255 MIC

| SMILES | MIC [1] [µg/mL] | MIC [2, 6] [µg/mL] | MIC [2, 9] [µg/mL] | MIC (μg/mL) 48 h [2, 5] [µg/mL] | inhibition at 45 µM [4] [%] | also measured |
| --- | --- | --- | --- | --- | --- | --- |
| FC(F)(F)c1ccc(Oc2ccc(-c3noc(-c4n[nH]cc4NC4CCCC4)n3)cc2)cc1 [Compound 38] | – | – | – | >128 | – | MIC (μg/mL) 24 h [1]: >128 µg/mL; MIC (μg/mL) 24 h ([2]; C. difficile ATCC 43255, 24 h): >128 µg/mL |
| FC(F)(F)c1ccc(Oc2ccc(-c3noc(-c4n[nH]cc4NC4CCCCC4)n3)cc2)cc1 [Compound 39] | – | – | – | >128 | – | MIC (μg/mL) 24 h [1]: >128 µg/mL; MIC (μg/mL) 24 h ([2]; C. difficile ATCC 43255, 24 h): >128 µg/mL |
| CCCCNc1c[nH]nc1-c1nc(-c2ccc(Oc3ccc(C(F)(F)F)cc3)cc2)no1 [Compound 40] | – | – | – | >128 | – | MIC (μg/mL) 24 h [1]: >128 µg/mL; MIC (μg/mL) 24 h ([2]; C. difficile ATCC 43255, 24 h): >128 µg/mL |
| CCC(C)Nc1c[nH]nc1-c1nc(-c2ccc(Oc3ccc(C(F)(F)F)cc3)cc2)no1 (centres unmarked) [Compound 41] | – | – | – | >128 | – | MIC (μg/mL) 24 h [1]: >128 µg/mL; MIC (μg/mL) 24 h ([2]; C. difficile ATCC 43255, 24 h): >128 µg/mL |
| CC(C)(C)OC(=O)N1CCC(Nc2c[nH]nc2-c2nc(-c3ccc(Oc4ccc(C(F)(F)F)cc4)cc3)no2)CC1 [Compound 42] | – | – | – | >128 | – | MIC (μg/mL) 24 h [1]: >128 µg/mL; MIC (μg/mL) 24 h ([2]; C. difficile ATCC 43255, 24 h): >128 µg/mL |
| O=C(Nc1c[nH]nc1-c1nc(-c2ccc(Oc3ccc(C(F)(F)F)cc3)cc2)no1)c1ccccn1 [Compound 43] | – | – | – | >128 | – | MIC (μg/mL) 24 h [1]: >128 µg/mL; MIC (μg/mL) 24 h ([2]; C. difficile ATCC 43255, 24 h): >128 µg/mL |
| O=C(Nc1c[nH]nc1-c1nc(-c2ccc(Oc3ccc(C(F)(F)F)cc3)cc2)no1)c1ccccc1 [Compound 44] | – | – | – | >128 | – | MIC (μg/mL) 24 h [1]: >128 µg/mL; MIC (μg/mL) 24 h ([2]; C. difficile ATCC 43255, 24 h): >128 µg/mL |
| FC(F)(F)c1ccc(Oc2ccc(-c3noc(-c4n[nH]c5ccccc45)n3)cc2)cc1 [Compound 45] | – | – | – | >128 | – | MIC (μg/mL) 24 h [1]: >128 µg/mL; MIC (μg/mL) 24 h ([2]; C. difficile ATCC 43255, 24 h): >128 µg/mL |
| FC(F)(F)c1ccc(Oc2ccc(-c3noc(-c4c[nH]c5ncccc45)n3)cc2)cc1 [Compound 46] | – | – | – | >128 | – | MIC (μg/mL) 24 h [1]: >128 µg/mL; MIC (μg/mL) 24 h ([2]; C. difficile ATCC 43255, 24 h): >128 µg/mL |
| O=[N+]([O-])c1c[nH]c(-c2nc(-c3ccc(Oc4ccc(C(F)(F)F)cc4)cc3)no2)c1 [Compound 47] | – | – | – | 8 (≈ 19.2 µM) | – | MIC (μg/mL) 24 h [1]: 8 µg/mL (≈ 19.2 µM); MIC (μg/mL) 24 h ([2]; C. difficile ATCC 43255, 24 h): 8 µg/mL (≈ 19.2 µM) |
| CS(=O)(=O)Nc1ccc(-c2nc(-c3ccc(OC4CCCC4)cc3)no2)cc1 [Compound 52, N-(4-(3-(4-(Cyclopentyloxy)phenyl)-1,2,4-oxadiazol-5-yl)phenyl) methanesulfonamide] | > 128 | > 128 | – | >128 | – | – |
| Cl.NCCCCc1nc(-c2ccc(OC3CCCC3)cc2)no1 [Compound 67, 4-(3-(4-(Cyclopentyloxy)phenyl)-1,2,4-oxadiazol-5-yl)butan-1-amine hydrochloride salt] | > 128 | 128 | – | – | – | MIC [2, 7]: 128 µg/mL |
| CCCCOc1ccc(-c2noc(-c3ccc(O)cc3)n2)cc1 [Compound 90, 4-(3-(4-Butoxyphenyl)-1,2,4-oxadiazol-5-yl)phenol] | > 128 | > 128 | – | – | – | MIC [2, 7]: > 128 µg/mL |
| Oc1ccc(-c2nc(-c3ccc(OC4CCC4)cc3)no2)cc1 [Compound 93, 4-(3-(4-Cyclobutoxyphenyl)-1,2,4-oxadiazol-5-yl)phenol] | > 128 | > 128 | – | – | – | MIC [2, 7]: > 128 µg/mL |
| O=[N+]([O-])c1c[nH]nc1-c1nc(-c2ccc(OC(F)(F)F)cc2)no1 [Compound 115, 5-(4-Nitro-1H-pyrazol-3-yl)-3-(4-(trifluoromethoxy)phenyl)-1,2,4-oxadiazole] | – | 2 (≈ 5.86 µM) | – | – | – | IC50 ([3]; THP-1, 24 h): 25 ± 4 µg/mL (≈ 73.3 µM); MIC [2, 8]: 4 µg/mL (≈ 11.7 µM) |
| COc1ccc2oc3ccc(-c4noc(-c5n[nH]cc5[N+](=O)[O-])n4)cc3c2c1 [Compound 119, 3-(8-Methoxydibenzo[b,d]furan-2-yl)-5-(4-nitro-1H-pyrazol-3-yl)-1,2,4-oxadiazole] | 32 (≈ 84.8 µM) | 2 (≈ 5.3 µM) | – | – | – | MIC [2, 7]: 64 µg/mL (≈ 170 µM) |
| Oc1ccc(-n2cc(-c3ccc(Oc4ccccc4)cc3)nn2)cc1 [Compound 136, 4-(4-(4-Phenoxyphenyl)-1H-1,2,3-triazol-1-yl)phenol] | > 128 | > 128 | – | >128 | – | – |
| O=C1CC(c2nc(-c3ccc(Oc4ccc(C(F)(F)F)cc4)cc3)no2)CN1 (centres unmarked) [DR-03-138] | – | – | > 128 | – | 30 ± 14 | – |
| O=[N+]([O-])c1c[nH]nc1-c1nc(-c2ccc(Oc3ccc(C(F)(F)F)cc3)cc2)no1 [DR-04-089] | – | – | – | – | – | % Spore Germination Inhibition at 45 μM [4]: 20 ± 3%; ATCC43255 MIC [2]: >128 µg/mL |
| Oc1ccc(-c2nc(-c3ccc(Oc4ccc(I)cc4)cc3)no2)cc1 [MAB-01-250A] | – | – | – | – | – | % Spore Germination Inhibition at 45 μM [4]: 62 ± 2%; ATCC43255 MIC [2]: >128 µg/mL |
| NCc1ccc(-c2nc(-c3ccc(Oc4ccc(C(F)(F)F)cc4)cn3)no2)cc1 [YQ-4-107] | – | – | – | – | 24 ± 3 | – |
| C#Cc1ccc(Oc2cnc(-c3noc(-c4ccc(CN)cc4)n3)cc2C2(C(F)(F)F)N=N2)cc1 [YQ-4-169] | – | – | – | – | – | % Spore Germination Inhibition at 45 μM [4]: 63 ± 3%; ATCC43255 MIC [2]: 8 µg/mL |

Now from value to compound, other results behind:

| MIC [1] [µg/mL] | MIC [2, 6] [µg/mL] | MIC [2, 9] [µg/mL] | SMILES | MIC (μg/mL) 48 h [2, 5] [µg/mL] | inhibition at 45 µM [4] [%] | also measured |
| --- | --- | --- | --- | --- | --- | --- |
| > 128 | > 128 | – | O=C(O)c1ccc(-c2nc(-c3ccc(OC4CCCC4)cc3)no2)cc1 [Compound 49, 4-(3-(4-(Cyclopentyloxy)phenyl)-1,2,4-oxadiazol-5-yl)benzoic acid] | >128 | – | – |
| 4 (≈ 12.4 µM) | 2 (≈ 6.22 µM) | – | Nc1ccc(-c2nc(-c3ccc(OC4CCCC4)cc3)no2)cc1 [Compound 51, 4-(3-(4-(Cyclopentyloxy)phenyl)-1,2,4-oxadiazol-5-yl) aniline] | >128 | – | – |
| 2 (≈ 5.96 µM) | 4 (≈ 11.9 µM) | – | NCc1ccc(-c2nc(-c3ccc(OC4CCCC4)cc3)no2)cc1 [Compound 53, (4-(3-(4-(Cyclopentyloxy)phenyl)-1,2,4-oxadiazol-5-yl)phenyl) methanamine] | – | – | MIC [2, 7]: 8 µg/mL (≈ 23.9 µM) |
| > 128 | > 128 | – | CCOc1ccc(-c2noc(-c3ccc(O)cc3)n2)cc1 [Compound 86, 4-(3-(4-Ethoxyphenyl)-1,2,4-oxadiazol-5-yl)phenol] | – | – | MIC [2, 7]: > 128 µg/mL |
| 128 (≈ 432 µM) | 4 (≈ 13.5 µM) | – | CCCOc1ccc(-c2noc(-c3ccc(O)cc3)n2)cc1 [Compound 87, 4-(3-(4-Propoxyphenyl)-1,2,4-oxadiazol-5-yl)phenol] | – | – | MIC [2, 7]: > 128 µg/mL |
| > 128 | > 128 | – | Oc1ccc(-c2nc(-c3ccc(OC4CC4)cc3)no2)cc1 [Compound 92, 4-(3-(4-Cyclopropoxyphenyl)-1,2,4-oxadiazol-5-yl)phenol] | – | – | MIC [2, 7]: > 128 µg/mL |
| 64 (≈ 212 µM) | > 128 | – | c1cc2cc(-c3nc(-c4ccc5occc5c4)no3)ccc2[nH]1 [Compound 120, 3-(Benzofuran-5-yl)-5-(1H-indol-5-yl)-1,2,4-oxadiazole] | – | – | MIC [2, 7]: > 128 µg/mL |
| > 128 | > 128 | – | Oc1ccc(-c2cc(-c3ccc(Oc4ccccc4)cc3)no2)cc1 [Compound 135, 4-(3-(4-Phenoxyphenyl)isoxazol-5-yl)phenol] | >128 | – | – |
| – | 4 (≈ 12.4 µM) | – | Oc1ccc(-c2noc(-c3ccc(OC4CCCC4)cc3)n2)cc1 [Compound 137, 5-(4-(Cyclopentyloxy)phenyl)-3-(4-hydroxyphenyl)-1,2,4-oxadiazole] | – | – | IC50 ([3]; THP-1 cells, 24 h): 8.5 ± 0.2 µg/mL (≈ 26.4 µM); MIC [2, 8]: 4 µg/mL (≈ 12.4 µM) |
| – | – | > 128 | NCc1ccc(-c2nc(-c3ccc(Oc4ccc(F)cc4)cc3)no2)cc1 [DR-05-250] | – | 73 ± 5 | – |
| – | – | > 128 | NCCCCc1nc(-c2ccc(Oc3ccc(C(F)(F)F)cc3)cc2)no1 [DR-06-025] | – | 44 ± 2 | – |
| – | – | > 128 | Nc1cc(Oc2ccccc2)cnc1-c1noc(-c2ccc(O)cc2)n1 [MAB-02-27A] | – | 17 ± 1 | – |
| – | – | > 128 | O=[N+]([O-])c1ccccc1Oc1ccc(-c2noc(-c3ccc(O)cc3)n2)nc1 [MAB-02-29A] | – | 26 ± 1 | – |
| – | – | > 128 | Oc1ccc(-c2nc(-c3ccc(Oc4ccccc4CBr)cc3)no2)cc1 [MAB-02-59A] | – | 30 ± 3 | – |
| – | – | 4 (≈ 11.9 µM) | NCc1ccc(-c2nc(-c3ccc(OC4CCCC4)cc3)no2)cc1 [YQ-4-81] | – | 41 ± 1 | – |
| – | – | 8 (≈ 21 µM) | NCc1ccc(-c2nc(-c3ccc(Oc4ccc(F)c(F)c4)cn3)no2)cc1 [YQ-4-99] | – | 44 ± 3 | – |
| – | – | 8 (≈ 19.4 µM) | NCc1ccc(-c2nc(-c3ccnc(Oc4ccc(C(F)(F)F)cc4)c3)no2)cc1 [YQ-4-104] | – | 74 ± 5 | – |
| – | – | 16 (≈ 42.4 µM) | CC(C)Oc1ccc(-c2noc(-c3ccc(CN)cc3)n2)cc1C(F)(F)F [YQ-4-155] | – | 33 ± 1 | – |
| – | – | > 128 | NCc1ccc(-c2noc(-c3ccnc(-c4ccc(C(F)(F)F)cc4)c3)n2)cc1 [YQ-4-161] | – | 55 ± 1 | – |
| – | – | 16 (≈ 40.4 µM) | NCc1ccc(-c2nc(-c3ccnc(-c4ccc(C(F)(F)F)cc4)c3)no2)cc1 [YQ-4-163] | – | 68 ± 5 | – |
| – | – | 8 (≈ 22.9 µM) | NCc1ccc(-c2nc(-c3ccc(OC4CCCCC4)cc3)no2)cc1 [YQ-4-165] | – | 50 ± 2 | – |
| – | – | 8 (≈ 21.3 µM) | NCCc1ccc(-c2nc(-c3ccc(Oc4ccc(F)cc4)cn3)no2)cc1 [YQ-4-170] | – | 48 ± 2 | – |
